Drawing on patent publication US8278453B2, “Quinolizidinone M1 receptor positive allosteric modulators” (Merck Sharp & Dohme Corp., priority 2008, dated 2012), this text covers EC50 for three compounds.

For this assay, the target named is T1, acetylcholine muscarinic M1 receptor (Homo sapiens, UniProt P11229).
T1 construct: expressed in transfected cells; host or cells: CHOnfat (CHO cells expressing NFAT), line CHOnfat/hM1
T1 sequence (P11229 1-460): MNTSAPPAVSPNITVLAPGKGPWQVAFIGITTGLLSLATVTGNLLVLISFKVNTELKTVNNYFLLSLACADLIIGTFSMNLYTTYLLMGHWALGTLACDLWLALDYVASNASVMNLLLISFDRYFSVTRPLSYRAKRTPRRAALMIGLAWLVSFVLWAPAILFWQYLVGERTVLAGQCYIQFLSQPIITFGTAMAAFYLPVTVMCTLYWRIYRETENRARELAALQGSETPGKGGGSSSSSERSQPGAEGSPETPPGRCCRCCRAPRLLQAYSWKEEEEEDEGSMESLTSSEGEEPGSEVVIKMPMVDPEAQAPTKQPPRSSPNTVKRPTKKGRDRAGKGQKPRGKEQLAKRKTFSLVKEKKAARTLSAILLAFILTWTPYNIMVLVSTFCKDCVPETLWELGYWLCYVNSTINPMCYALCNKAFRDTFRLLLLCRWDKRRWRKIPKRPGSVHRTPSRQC
The assay can be described thus: muscarinic M1 FLIPR intracellular calcium assay (positive allosteric modulation, EC20 acetylcholine). The format is cell-based. The conditions noted are these: inflection point from FLIPR values; CHOnfat/hM1 cells; 4 min preincubation, then EC20 acetylcholine (3 nM final); read-out: IP Value. On the procedure:
The assay studies the effect of one or several concentrations of test compounds on basal or acetylcholine-stimulated Ca^2+ levels using FLIPR.
Compounds are prepared and subjected to a preincubation period of 4 min. Thereafter, a single EC20 concentration of acetylcholine is added to each well (3 nM final). The intracellular Ca^2+ level of each sample is measured and compared to an acetylcholine control to determine any modulatory activity.
Cells: CHOnfat/hM1, hM2, hM3 or hM4 cells are plated 24 hr before the assay at a density of 18,000 cells/well (100 μL) in a 384 well plate. CHOnfat/hM1 and CHOnfat/hM3 Growth Medium: 90% DMEM (Hi Glucose); 10% HI FBS; 2 mM L-glutamine; 0.1 mM NEAA; Pen-Strep; and 1 mg/ml Geneticin, are added. For M2Gqi5CHOnfat and M4Gqi5CHOnfat cells, an additional 600 μg/ml hygromycin is added.
Equipment: 384 well plate, 120 μL addition plate; 96-well Whatman 2 ml Uniplate Incubator, 37° C., 5% CO2; Skatron EMBLA-384 Plate Washer; Multimek Pipetting System; Genesis Freedom 200 System; Mosquito System; Temo Nanolitre Pipetting System; and FLIPR^384 Fluorometric Imaging Plate Reader System are used.
Buffers. Assay Buffer: Hanks Balanced Salt Solution, with 20 mM Hepes, 2.5 mM Probenecid (Sigma P-8761) first dissolved in 1N aqueous NaOH, 1% Bovine Serum Albumin (Sigma A-9647). Dye Loading Buffer: Assay Buffer plus 1% Fetal Bovine Serum and Fluo-4AM/Pluronic Acid Mixture. 2 mM Fluo-4AM ester stock in DMSO (Molecular Probes F-14202) Concentration of 2 μM in buffer for a final concentration of 1 μM in Assay. 20% Pluronic Acid Solution stock, with a concentration of 0.04% in Buffer, 0.02% in Assay.
65 μl of 2 mM Fluo-4AM are mixed with 130 μL of 20% Pluronic Acid. The resulting solution and 650 μL FBS is added to the assay buffer for a total volume of 65 mL. Positive Controls: 4-Br-A23187: 10 mM in DMSO; final concentration 10 μM. […]
After 60 min, the cells are washed three times with 100 μL of buffer, leaving 30 μL of buffer in each well. […] A signal test to check background fluorescence and basal fluorescence signal is performed. […]

In the case of `Cn1cc(-c2ccc(Cc3cc(C(=O)O)c(=O)n4ccccc34)nc2)cn1` [Example 5, 1-{[5-(1-Methyl-1H-pyrazol-4-yl)pyridin-2-yl]methyl}-4-oxo-4H-quinolizine-3-carboxylic acid], the EC50 worked out at 213 nM.
Then `O=C(O)c1cc(Cc2ccc(Cl)cc2)c2ccccn2c1=O` [Example 3, 1-(4-Chlorobenzyl)-4-oxo-4H-quinolizine-3-carboxylic acid], with 201 nM; and `O=C(O)c1cc(Cc2ccc(-c3ccccc3)cc2)c2ccccn2c1=O` [Example 4, 1-(Biphenyl-4-ylmethyl)-4-oxo-4H-quinolizine-3-carboxylic acid], with 110 nM.
